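Results reflect a 48-hour exposure of cells in 96-well plates to compound at five concentrations. At the GI50, growth is halved.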 Calls of active or inactive are those of the source. No stated cut-off is given here; in the data, active = GI50 up to about 1.1 µM and inactive = higher.
Columns and labels:
Test in all cases: NCI tumour cell line growth inhibition, 48 h
M14 = tested on: M14
OVCAR-4 = tested on: OVCAR-4
SW-620 = tested on: SW-620
SN12C = tested on: SN12C
SF-295 = tested on: SF-295
MCF7 = tested on: MCF7
TK-10 = tested on: TK-10
SNB-19 = tested on: SNB-19
NCI-H23 = tested on: NCI-H23
RPMI-8226 = tested on: RPMI-8226
Malme-3M = tested on: Malme-3M
MDA-MB-231 = tested on: MDA-MB-231
HL-60 = tested on: HL-60
MOLT-4 = tested on: MOLT-4
DU-145 = tested on: DU-145
EKVX = tested on: EKVX
PC-3 = tested on: PC-3
HOP-92 = tested on: HOP-92
NCI-H460 = tested on: NCI-H460
SR = tested on: SR

Structure (SMILES)	GI50 (M14)	GI50 (OVCAR-4)	GI50 (SW-620)	GI50 (SN12C)	GI50 (SF-295)	GI50 (MCF7)	GI50 (TK-10)	GI50 (SNB-19)	GI50 (NCI-H23)	GI50 (RPMI-8226)	GI50 (Malme-3M)	GI50 (MDA-MB-231)	GI50 (HL-60)	GI50 (MOLT-4)	GI50 (DU-145)	GI50 (EKVX)	GI50 (PC-3)	GI50 (HOP-92)	GI50 (NCI-H460)	GI50 (SR)
C[C@H](NC(=O)C(C)(Cc1ccc(O)cn1)NC(=O)c1ccccc1)c1ccccc1 (stereo not given in full)	> 100 µM (inactive)	> 100 µM (inactive)	> 100 µM (inactive)	> 100 µM (inactive)	> 100 µM (inactive)	> 100 µM (inactive)	> 100 µM (inactive)	> 100 µM (inactive)	> 100 µM (inactive)	> 100 µM (inactive)	> 100 µM (inactive)	> 100 µM (inactive)	> 100 µM (inactive)	> 100 µM (inactive)	> 100 µM (inactive)	> 100 µM (inactive)	> 100 µM (inactive)	> 100 µM (inactive)		
CCOC(=O)/C(C[C@H]1OC(C)(C)O[C@@H]1[C@H]1COC(C)(C)O1)=N/O	> 100 µM (inactive)	> 100 µM (inactive)	> 100 µM (inactive)	> 100 µM (inactive)	> 100 µM (inactive)	> 100 µM (inactive)	> 100 µM (inactive)	> 100 µM (inactive)	> 100 µM (inactive)	> 100 µM (inactive)	> 100 µM (inactive)	> 100 µM (inactive)	> 100 µM (inactive)	> 100 µM (inactive)	> 100 µM (inactive)	> 100 µM (inactive)	> 100 µM (inactive)	> 100 µM (inactive)	> 100 µM (inactive)	
CC(=O)O[C@@H]1[C@H](C(C)C)[C@@H](OC(C)=O)C/C(C)=C/CC[C@]2(C)O[C@@H]12	> 100 µM (inactive)	> 100 µM (inactive)	> 100 µM (inactive)	> 100 µM (inactive)	> 100 µM (inactive)	> 100 µM (inactive)	> 100 µM (inactive)	> 100 µM (inactive)	> 100 µM (inactive)	> 100 µM (inactive)	> 100 µM (inactive)	> 100 µM (inactive)	> 100 µM (inactive)	> 100 µM (inactive)	> 100 µM (inactive)	> 100 µM (inactive)	> 100 µM (inactive)	> 100 µM (inactive)	> 100 µM (inactive)	
Cc1cc2c(cc1Cl)SC(NNC(=O)c1ccccc1)=NS2(=O)=O	> 10 µM (inactive)	> 10 µM (inactive)	> 10 µM (inactive)	> 10 µM (inactive)	> 10 µM (inactive)	2.21 µM (inactive)	> 10 µM (inactive)	> 10 µM (inactive)	> 10 µM (inactive)	> 10 µM (inactive)	> 10 µM (inactive)	> 10 µM (inactive)	> 10 µM (inactive)	> 10 µM (inactive)	> 10 µM (inactive)	> 10 µM (inactive)	> 10 µM (inactive)		> 10 µM (inactive)	
NC(CSC(c1ccccc1)(c1ccccc1)c1ccccc1)C(=O)O (stereo not given)	0.538 µM (active)	7.5 µM (inactive)	0.741 µM (active)	1.27 µM (inactive)			19.9 µM (inactive)	1.22 µM (inactive)	2.29 µM (inactive)	0.569 µM (active)	2.17 µM (inactive)	1.42 µM (inactive)	0.433 µM (active)	1.24 µM (inactive)		1.19 µM (inactive)	1.61 µM (inactive)	7.31 µM (inactive)	0.658 µM (active)	
CN(C)C(=O)C(F)(F)C(c1ccccc1)C1C(=O)N(C)C(=O)N(C)C1=O (stereo not given)	> 100 µM (inactive)	> 100 µM (inactive)	> 100 µM (inactive)		> 100 µM (inactive)	> 100 µM (inactive)	> 100 µM (inactive)	> 100 µM (inactive)	> 100 µM (inactive)	> 100 µM (inactive)		> 100 µM (inactive)		> 100 µM (inactive)	> 100 µM (inactive)	> 100 µM (inactive)	> 100 µM (inactive)	> 100 µM (inactive)	> 100 µM (inactive)	
C=CCN(C(=O)CNC(=O)C(F)(F)F)c1cc(OCc2ccccc2)c2c(c1)c(C)cn2S(=O)(=O)c1ccccc1	> 100 µM (inactive)	9.16 µM (inactive)		> 100 µM (inactive)	23 µM (inactive)	7.57 µM (inactive)	> 100 µM (inactive)	> 100 µM (inactive)	> 87.7 µM (inactive)	4.73 µM (inactive)	> 100 µM (inactive)	> 24.1 µM (inactive)	< 0.01 µM (active)	4.16 µM (inactive)	> 100 µM (inactive)	7.71 µM (inactive)	5.96 µM (inactive)	4.92 µM (inactive)	> 30.5 µM (inactive)	
CCOC(=O)/C1=C(\C)N(Cc2ccccc2)C(=O)c2ccccc2C(=O)c2c(OC(C)=O)ccc(OC(C)=O)c21		24.9 µM (inactive)	65.3 µM (inactive)	> 100 µM (inactive)	29 µM (inactive)	21.1 µM (inactive)	58.3 µM (inactive)	> 100 µM (inactive)		18.9 µM (inactive)	69.8 µM (inactive)	> 100 µM (inactive)	29.9 µM (inactive)	59.7 µM (inactive)		18.3 µM (inactive)		12.7 µM (inactive)	39.4 µM (inactive)	20.5 µM (inactive)
